Assay results taken from publication PMC12390684 (Viruses, 2025).

Molecular target: IN-GCN2 interaction (6xHis-IN / GST-GCN2) (UniProt P04585+Q9P2K8)
Assay: biochemical
Assay type: binding, HIV-1 IN; human GCN2
Conditions: screen, single dose 100 µM, single replicate; residual AlphaLISA signal normalized to DMSO control

IN-GCN2 interaction (6xHis-IN / GST-GCN2), sequence (Q9P2K8 192-1024, other chains not shown): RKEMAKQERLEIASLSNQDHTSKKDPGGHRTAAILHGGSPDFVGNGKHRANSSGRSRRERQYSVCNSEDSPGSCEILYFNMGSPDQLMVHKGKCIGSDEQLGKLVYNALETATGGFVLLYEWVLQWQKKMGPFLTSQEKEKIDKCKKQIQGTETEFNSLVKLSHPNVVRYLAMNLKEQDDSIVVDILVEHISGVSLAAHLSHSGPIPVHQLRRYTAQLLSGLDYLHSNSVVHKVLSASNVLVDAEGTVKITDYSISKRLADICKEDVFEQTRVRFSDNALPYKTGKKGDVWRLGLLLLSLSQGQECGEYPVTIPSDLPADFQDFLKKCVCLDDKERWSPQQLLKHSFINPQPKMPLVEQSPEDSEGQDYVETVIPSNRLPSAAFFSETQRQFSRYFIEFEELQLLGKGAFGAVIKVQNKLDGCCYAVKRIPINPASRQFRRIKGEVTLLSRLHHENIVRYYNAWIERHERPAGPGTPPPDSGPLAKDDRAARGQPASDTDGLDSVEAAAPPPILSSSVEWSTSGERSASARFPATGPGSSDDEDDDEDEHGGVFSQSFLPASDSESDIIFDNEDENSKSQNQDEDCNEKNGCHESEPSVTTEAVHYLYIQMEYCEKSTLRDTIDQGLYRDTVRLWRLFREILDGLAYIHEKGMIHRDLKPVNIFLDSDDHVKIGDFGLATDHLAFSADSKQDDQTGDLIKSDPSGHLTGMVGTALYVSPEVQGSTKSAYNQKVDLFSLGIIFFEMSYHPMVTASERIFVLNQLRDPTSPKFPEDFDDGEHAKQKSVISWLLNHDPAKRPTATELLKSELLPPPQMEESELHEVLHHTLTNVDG

C=C(NC(=O)C(=C)NC(=O)c1csc(C2=N[C@@H]3c4csc(n4)[C@H]4NC(=O)c5csc(n5)[C@H]([C@](C)(O)[C@@H](C)O)NC(=O)[C@H]5CSC(=N5)/C(=C/C)NC(=O)[C@H]([C@@H](C)O)NC(=O)c5csc(n5)[C@]3(CC2)NC(=O)[C@H](C)NC(=O)C(=C)NC(=O)C(=C)NC(=O)[C@H](C(C)C)N[C@@H]2C=Cc3c([C@H](C)O)cc(nc3[C@H]2O)C(=O)O[C@@H]4C)n1)C(N)=O [NSC285116]
IN-GCN2 interaction (%): 79.00%

C[C@]12C(=O)C=CCC1=CC[C@@H]1[C@@H]2CC[C@]2(O)C(=O)O[C@@]3(C)[C@H]4C[C@]5(C)[C@@H](CO[C@@]16O[C@@]32[C@H]5C6=O)C(=O)O4 [NSC287088]
IN-GCN2 interaction (%): 131.80%

COc1cc2cc(c1Cl)N(C)C(=O)C[C@H](OC(=O)C(C)C)[C@]1(C)O[C@H]1[C@H](C)[C@@H]1C[C@@](O)(NC(=O)O1)[C@H](OC)/C=C/C=C(\C)C2 [NSC292222]
IN-GCN2 interaction (%): 93.28%

CO[C@@H]1C[C@@H](C[C@H]2CC[C@H](C)[C@H]([C@@H](C)C(=O)[O-])O2)O[C@]2(O[C@](C)([C@H]3CC[C@@](C)([C@@H]4O[C@@H]([C@H]5O[C@@](O)(CO)[C@H](C)C[C@@H]5C)C[C@@H]4C)O3)C[C@H]2C)[C@@H]1C.[Na+] [NSC292567]
IN-GCN2 interaction (%): 95.66%

CC(=O)OC1C2(CC3N4C(=O)C5(CO)SSC4(CC31O)C(=O)N5C)OC(C)C(C)(C)C2=O (centres unmarked) [NSC294408]
IN-GCN2 interaction (%): 104.55%

C=C1C(=O)O[C@@H]2/C=C(/CO)CC/C=C(/CO)C[C@@H](OC(=O)C(C)C)[C@@H]12 [NSC295426]
IN-GCN2 interaction (%): 56.21%

CC(=O)Oc1ccc2ccc(=O)oc2c1OC(C)=O [NSC301683]
IN-GCN2 interaction (%): 152.96%

C=C1C(=O)O[C@@H]2C[C@@]3(C)CCC[C@H](C)C3=C[C@H]12 [NSC302289]
IN-GCN2 interaction (%): 117.43%

C=C1C(=O)C2=CC1CCC(=O)C1(C)CCC(OC(C)=O)C(C)(C)C1CC2O (centres unmarked) [NSC302979]
IN-GCN2 interaction (%): 105.64%

C=C1[C@@H](C)[C@H]2[C@H](Cc3ccccc3)NC(=O)C23[C@H](OC(C)=O)/C=C/[C@@](C)(O)C[C@@H](C)C/C=C/[C@H]3[C@@H]1O (some centres unmarked) [NSC305222]
IN-GCN2 interaction (%): 109.95%

COc1c2c(c(CC=C(C)C)c3oc(=O)c(-c4ccc(O)cc4)c(O)c13)OC(C)(C)C=C2 [NSC307981]
IN-GCN2 interaction (%): 101.87%

CO[C@@H]1/C=C/C=C(\C)Cc2cc(O)c(Cl)c(c2)N(C)C(=O)C[C@H](OC(=O)C(C)C)[C@]2(C)O[C@H]2[C@H](C)[C@@H]2C[C@@]1(O)NC(=O)O2 [NSC314018]
IN-GCN2 interaction (%): 97.15%

Nc1ncnc2c1ncn2[C@@H]1C=C(CO)[C@@H](O)[C@H]1O [NSC316458]
IN-GCN2 interaction (%): 111.58%

COc1cc2c(c(OC)c1OC)-c1ccc(SC)c(=O)cc1[C@@H](NC(=O)C(F)(F)F)CC2 [NSC320301]
IN-GCN2 interaction (%): 97.92%

C[C@H](N)C(=O)N[C@@H]1[C@H]2C(=C(O)C[C@@H](O)[C@@H]2O)C(=O)O[C@]1(C)C(Cl)Cl [NSC325014]
IN-GCN2 interaction (%): 94.06%

CC(O)C1/C=C/C=C/C(=O)OC2CC3OC4C5OC5(C)C(O)CC4(COC(=O)C(O)C(C)CCO1)C2(C)C31CO1 (centres unmarked) [NSC327993]
IN-GCN2 interaction (%): 115.91%

CC1CCOC(=O)/C=C/C=C/C(=O)OC2CC3OC4C5OC5(C)C(O)CC4(COC(=O)C1O)C2(C)C31CO1 (centres unmarked) [NSC328166]
IN-GCN2 interaction (%): 102.91%

CC(=O)O[C@@H]1[C@@H](O)[C@H](O[C@H]2[C@H](OC(=O)[C@H]3CC[C@H]4[C@@H](C3)O[C@@]3(C[C@H](OC(=O)/C=C/c5ccccc5)[C@H](C)CO3)[C@]43CO3)O[C@H](C)[C@@H](O)[C@@H]2OC(C)=O)O[C@H](C)[C@H]1O [NSC328426]
IN-GCN2 interaction (%): 91.16%

COC1CC(C)C(OC)c2cc(O)cc(c2O)NC(=O)/C(C)=C\C=C/C(C)C(OC(N)=O)/C(C)=C\C(C)C1OC (centres unmarked) [NSC330500]
IN-GCN2 interaction (%): 77.16%

CC(=O)O[C@H]1C(=O)[C@@]2(C)[C@H]([C@H](OC(=O)c3ccccc3)[C@]3(O)C[C@H](O)C(C)=C1C3(C)C)[C@]1(OC(C)=O)CO[C@@H]1C[C@@H]2O [NSC330753]
IN-GCN2 interaction (%): 109.90%

Nc1ncnc2c1ncn2C1OCC(O)C1O (centres unmarked) [NSC330917]
IN-GCN2 interaction (%): 127.88%

CCCn1cc2c3c(cccc31)[C@H]1C[C@@H](C)CN(C)[C@@H]1C2.O=C(O)C(O)C(O)C(=O)O [NSC332294]
IN-GCN2 interaction (%): 41.41%

CO[C@@H](/C(C)=C/C=C/C(C)=C/c1coc(C)n1)[C@@H](C)[C@@H]1C[C@H](O)[C@@]2(C)O[C@@H]2/C=C/[C@@H](C)[C@H]2C[C@H](CC(=O)O2)C[C@@H]2O[C@H]2C(=O)O1 [NSC332598]
IN-GCN2 interaction (%): 94.06%

C[C@@H]1C(=O)C[C@H]2C(C)(C)CCC[C@]2(C)[C@@]1(O)CCc1ccoc1 [NSC332876]
IN-GCN2 interaction (%): 44.59%

COC(=O)NC1C(C)OC(OC2C/C=C(/C)C3C=CC4C(OC5CC(OC6CCC(OC7CC(O)C(OC8CCC(O)C(C)O8)C(C)O7)C(C)O6)C(OC(C)=O)C(C)O5)C(C)CC(C)C4C3(C)/C(O)=C3/C(=O)OC4(CC(C=O)=CC(O)C4/C=C\2C)C3=O)CC1(C)[N+](=O)[O-] (centres unmarked) [NSC333856]
IN-GCN2 interaction (%): 110.41%

COc1cc2c(c(OC)c1O)-c1ccc(OC)c(=O)cc1[C@@H](NC(=O)C(F)(F)F)CC2 [NSC335989]
IN-GCN2 interaction (%): 89.57%

COC(=O)[C@]1(C)CCC[C@]2(C)C3=CC(=O)[C@@]4(C(C)C)O[C@H]4[C@]3(O)CC[C@@H]12 [NSC337783]
IN-GCN2 interaction (%): 100.26%

CN(C)c1ccc2c(SCC(=O)OCC(=O)[C@@]3(O)CC[C@H]4[C@@H]5CCC6=CC(=O)C=C[C@]6(C)[C@H]5C(=O)C[C@@]43C)c3ccc(N(C)C)cc3nc2c1 [NSC337851]
IN-GCN2 interaction (%): 15.16%

CCC/C=C/C=C/C(=O)O[C@H]1/C(=C/C(=O)OC)C[C@H]2C[C@H]([C@@H](C)O)OC(=O)C[C@H](O)C[C@@H]3C[C@H](OC(C)=O)C(C)(C)[C@](O)(C[C@@H]4C/C(=C/C(=O)OC)C[C@H](/C=C/C(C)(C)[C@]1(O)O2)O4)O3 [NSC339555]
IN-GCN2 interaction (%): 32.23%

CO[C@H]1C[C@@H]2\C=C(C)/C=C/C=C\C(=O)N[C@H](c3ccccc3)C/C=C/CC[C@H](O)CC(=O)C2=C1O [NSC343256]
IN-GCN2 interaction (%): 61.66%

O=C1N[C@@H]2C(=C[C@H](O)[C@@H](O)[C@H]2O)c2cc3c(cc21)OCO3 [NSC349155]
IN-GCN2 interaction (%): 100.93%

CC(O)CCC(=O)c1ccoc1 (centres unmarked) [NSC349438]
IN-GCN2 interaction (%): 84.65%

COc1ccc2c(c1)O[C@H]1c3ccc(O)cc3OC[C@@H]21 [NSC350085]
IN-GCN2 interaction (%): 73.66%

C=Cc1cc(OC)c2c(c1)c(=O)oc1c2cc(OC)c2c(O)ccc(C3OC(C)C(O)C(C)(O)C3O)c21 (centres unmarked) [NSC354844]
IN-GCN2 interaction (%): 85.63%

CO[C@H]1[C@H](O)[C@@H](O)[C@H](n2c3c(Cl)cccc3c3c4c(c5c6cccc(Cl)c6[nH]c5c32)C(=O)NC4=O)O[C@@H]1CO [NSC359079]
IN-GCN2 interaction (%): 55.24%

C=C1C(=O)OC2CC(C)C3(O)CCC(=O)C3(C)CC12 (centres unmarked) [NSC361902]
IN-GCN2 interaction (%): 90.19%

CC(C)=CCCC(C)C1=C(O)C(=O)C(C)=CC1=O (centres unmarked) [NSC365793]
IN-GCN2 interaction (%): 50.48%

C[C@@H]1CC[C@H]2[C@@H](C)C(=O)O[C@@H]3O[C@@]4(C)CC[C@@H]1[C@]32OO4 [NSC369397]
IN-GCN2 interaction (%): 101.56%

CC1(C)CCC[C@]2(C)C3=C(CC[C@@H]12)C(=O)OC3 [NSC375294]
IN-GCN2 interaction (%): 100.67%

CC[C@H](C)[C@@H]([C@@H](CC(=O)N1CCC[C@H]1[C@H](OC)[C@@H](C)C(=O)N[C@@H](Cc1ccccc1)c1nccs1)OC)N(C)C(=O)[C@@H](NC(=O)[C@H](C(C)C)N(C)C)C(C)C [NSC376128]
IN-GCN2 interaction (%): 96.15%

COc1cc2oc3cc(=O)cc4oc(-c5ccccc5)cc(c2c2c1CCC(c1ccccc1)O2)c43 (centres unmarked) [NSC376248]
IN-GCN2 interaction (%): 71.04%

CC1(C)C(=O)N2c3ccccc3C3(CC(N4C(=O)c5ccccc5C4=O)C(=O)O3)C2N1C(=O)OCc1ccccc1 (centres unmarked) [NSC382796]
IN-GCN2 interaction (%): 53.34%

CC1=C2C(=CC(C)(C)[C@@H]2O)C(=O)[C@](C)(O)C12CC2 [NSC400978]
IN-GCN2 interaction (%): 28.97%

C[C@H]1CO[C@H]2C3=C(C(=O)C=CC3=O)[C@@H]3OC(=O)[C@H]4CC[C@@H]5[C@H]1CC[C@@]52[C@@H]43 [NSC401005]
IN-GCN2 interaction (%): 52.24%

COc1cc([C@@H]2c3cc4c(cc3C[C@H]3COC(=O)[C@@H]32)OCO4)cc(OC)c1OC [NSC403148]
IN-GCN2 interaction (%): 91.16%

COc1cc2c(c3c1c(=O)c1ccccc1n3C)C=CC(C)(C)O2 [NSC403169]
IN-GCN2 interaction (%): 89.07%

O=c1oc2c(O)c(O)cc3c(=O)oc4c(O)c(O)cc1c4c23 [NSC407286]
IN-GCN2 interaction (%): 49.11%

COC(=O)[C@H]1[C@H]2C[C@H]3c4[nH]c5ccccc5c4CCN3C[C@@H]2CC[C@@H]1O [NSC407306]
IN-GCN2 interaction (%): 114.25%

COc1cc(O[C@@H]2O[C@H](CO)[C@@H](O)[C@H](O)[C@H]2O)c2c(c1)O[C@H](c1ccc(O)cc1)CC2=O [NSC407308]
IN-GCN2 interaction (%): 92.73%

C[C@]12CC[C@H](O)C[C@H]1CC[C@@H]1[C@@H]2CC[C@]2(C)[C@@H](C3=CC(=O)OC3)CC[C@]12O [NSC407806]
IN-GCN2 interaction (%): 101.32%

CSC1SC[C@H]2C(=O)N(C)[C@@H](C(C)C)C(=O)OC[C@@H](NC(=O)c3cnc4ccccc4n3)C(=O)N[C@@H](C)C(=O)N(C)[C@@H]1C(=O)N(C)[C@@H](C(C)C)C(=O)OC[C@@H](NC(=O)c1cnc3ccccc3n1)C(=O)N[C@@H](C)C(=O)N2C (some centres unmarked) [NSC526417]
IN-GCN2 interaction (%): 53.14%

COc1cccc2c1C1COC3C4CC(C(=O)O)C(C(C2)N13)N4C.O=C(O)CC(O)(CC(=O)O)C(=O)O (centres unmarked) [NSC601422]
IN-GCN2 interaction (%): 152.09%

COc1cccc2c1[C@H](CO)N1[C@H](C#N)[C@@H]3C[C@H](C(=O)O)[C@@H]([C@@H]1C2)N3C [NSC607097]
IN-GCN2 interaction (%): 110.01%

O[C@@H]1[C@@H](O)[C@@H](O)CN2CC[C@H](O)[C@@H]12 [NSC614552]
IN-GCN2 interaction (%): 134.45%

CCc1c2c(nc3ccc(OC(=O)N4CCC(N5CCCCC5)CC4)cc13)-c1cc3c(c(=O)n1C2)COC(=O)[C@]3(O)CC [NSC616348]
IN-GCN2 interaction (%): 97.94%

CC(=O)CCCCn1c(=O)c2c(ncn2C)n(C)c1=O [NSC637086]
IN-GCN2 interaction (%): 87.24%
